From patent publication US9801888B2, “Pyrimidine compounds as mTOR and PI3K inhibitors” (DEVELOPMENT CENTER FOR BIOTECHNOLOGY, priority 2009, dated 2017)

target: recombinant mTOR (Homo sapiens (Human), UniProt P42345); experiment: mTOR kinase assay (33P incorporation into 4EBP1); format: biochemical; conditions: compound at 10 μM; 10 μM ATP; versus DMSO control
Procedure: The activity of the compound against mTOR was examined by measuring the incorporation of ^33P from [γ-^33P]-ATP into 4EBP1. His-tagged, recombinant human 4EBP1 was expressed in E. coli, purified by nickel-nitrilotriacetic acid (Ni-NTA) resins, and stored at −80° C. Phosphorylation of 4EBP1 by mTOR was assayed in the presence or absence of the compound and performed in a final volume of 25 μl reaction buffer containing 300 ng 4EBP1, 50 ng recombinant mTOR (Invitrogen), 50 mM HEPES (pH 7.5), 1 mM EGTA, 0.01% Polysorbate 20, 10 mM MnCl2, 2.5 mM DTT, 10 μM ATP, and 0.5 μCi [γ-33P]-ATP (PerkinElmer) for 30 min at 30° C. The reactions were terminated by adding 3% phosphoric acid. The ^33P labeled 4EBP1 was transferred onto UniFilter-96 GF/B plate (PerkinElmer) and quantified by Top Count Microplate Scintillation Counter (PerkinElmer). For primary screening of kinase activity inhibition, each test compound was evaluated at […] in duplicate. […] The IC50 values of the compounds were determined after carrying out assays at eight serially diluted concentrations of each compound in duplicate. The results were analyzed using […] software (GraphPad Prism 5; GraphPad Software Inc.).
IC50 value is defined as the concentration of the test compound which achieves a half-maximal inhibition of the kinase activity.

recombinant mTOR, sequence (P42345 1360-2549): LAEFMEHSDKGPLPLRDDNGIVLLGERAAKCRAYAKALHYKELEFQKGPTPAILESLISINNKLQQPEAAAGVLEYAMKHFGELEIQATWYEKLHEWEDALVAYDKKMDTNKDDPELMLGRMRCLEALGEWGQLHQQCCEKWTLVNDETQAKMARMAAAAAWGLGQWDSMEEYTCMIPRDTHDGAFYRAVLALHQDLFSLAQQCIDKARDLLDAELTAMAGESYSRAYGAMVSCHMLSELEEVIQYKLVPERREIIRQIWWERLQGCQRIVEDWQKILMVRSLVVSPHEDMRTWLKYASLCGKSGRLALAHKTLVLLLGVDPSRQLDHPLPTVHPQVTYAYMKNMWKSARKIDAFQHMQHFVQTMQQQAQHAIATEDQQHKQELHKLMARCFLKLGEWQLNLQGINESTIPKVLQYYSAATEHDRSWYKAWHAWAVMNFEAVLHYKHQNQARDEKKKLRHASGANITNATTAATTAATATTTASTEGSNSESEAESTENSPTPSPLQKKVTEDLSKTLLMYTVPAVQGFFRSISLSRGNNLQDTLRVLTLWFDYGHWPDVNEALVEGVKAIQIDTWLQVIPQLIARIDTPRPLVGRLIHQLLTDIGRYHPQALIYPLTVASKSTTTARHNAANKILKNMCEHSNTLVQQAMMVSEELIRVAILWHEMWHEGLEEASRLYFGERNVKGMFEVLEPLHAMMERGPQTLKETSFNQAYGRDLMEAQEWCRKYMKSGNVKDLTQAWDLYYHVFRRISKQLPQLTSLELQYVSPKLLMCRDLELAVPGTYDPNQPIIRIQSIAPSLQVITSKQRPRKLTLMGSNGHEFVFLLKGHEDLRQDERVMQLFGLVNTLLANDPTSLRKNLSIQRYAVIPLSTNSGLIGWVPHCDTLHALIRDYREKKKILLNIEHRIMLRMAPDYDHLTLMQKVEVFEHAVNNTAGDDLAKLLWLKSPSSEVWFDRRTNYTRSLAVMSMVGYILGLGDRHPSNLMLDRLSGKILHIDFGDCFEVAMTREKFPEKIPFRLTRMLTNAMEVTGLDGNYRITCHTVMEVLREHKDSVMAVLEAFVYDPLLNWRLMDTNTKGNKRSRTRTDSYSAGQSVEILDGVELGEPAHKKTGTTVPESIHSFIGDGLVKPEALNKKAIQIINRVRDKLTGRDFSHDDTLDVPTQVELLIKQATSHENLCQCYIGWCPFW

Row | % Inhibition @ 10 μM | Compound
1 | 88% | COc1c(-c2ccc(N)cc2)nc(-c2ccc(N)cc2)nc1N1CCOCC1 [MTR-0483]

system: PI3K (p110β/p85α); experiment: PI3K HTRF enzyme assay, p110β/p85α; format: biochemical; conditions: compound at 500 nM; 100 μM ATP
Procedure: Recombinant PI3K (p110α/p85α) and PI3K (p110β/p85α) were from Millipore. […] Briefly, the compounds of interest dissolved in 100% DMSO were dispensed in all wells, following which the mixture of PIP2 and enzyme was added. PI3K (p110α/p85α) and PI3K (p110β/p85α) enzyme reactions were initiated in the presence of 10 μM and 100 μM ATP, respectively, and incubated for 30 min at room temperature. STOP solution prepared 2 hours prior to use was added to stop reactions, and mixed well. Detection solution prepared 2 hours prior to use was added, and incubated at room temperature for 17 hours in the dark. […] HTRF ration was calculated as follows: […]

Row | Compound | % inhibition @ 500 nM p110β
2 | CCOC(=O)c1nc(-c2ccc(NC(=O)Nc3cccc(F)c3)cc2)nc(N2CCOCC2)c1OCC [MTR-0147, 5-Ethoxy-2-{4-[3-(3-fluoro-phenyl)-ureido]-phenyl}-6-morpholin-4-yl-pyrimidine-4-carboxylic acid ethyl ester] | 1.20%
3 | COc1cnc(-c2ccc(NC(=O)Nc3cccc(F)c3)cc2)nc1N1CCOCC1 [MTR-0164, 1-(3-Fluoro-phenyl)-3-[4-(5-methoxy-4-morpholin-4-yl-pyrimidin-2-yl)-phenyl]-urea] | 42.10%
4 | CCOc1c(CN2CCN(S(C)(=O)=O)CC2)nc(-c2ccc(NC(=O)Nc3ccccc3)cc2)nc1N1CCOCC1 [MTR-0169, 1-{4-[5-Ethoxy-4-(4-methanesulfonyl-piperazin-1-ylmethyl)-6-morpholin-4-yl-pyrimidin-2-yl]-phenyl}-3-phenyl-urea] | 3.20%
5 | CCOc1cnc(-c2ccc(NC(=O)Nc3ccc(N4CCOCC4=O)cc3)cc2)nc1-c1ccncc1 [MTR-0398, 1-[4-(5-Ethoxy-4-pyridin-4-yl-pyrimidin-2-yl)-phenyl]-3-[4-(3-oxo-morpholin-4-yl)-phenyl]-urea] | 21.80%

Other lines, results leading:

Row | % inhibition @ 500 nM p110β | Compound
6 | 44.80% | CSc1c(OCCN(C)C)nc(-c2cccc(O)c2)nc1N1CCOCC1 [MTR-0043, 3-[4-(2-Dimethylamino-ethoxy)-5-methylsulfanyl-6-morpholin-4-yl-pyrimidin-2-yl]-phenol]
7 | 4.50% | CSc1c(Cl)nc(-c2ccc(N)nc2)nc1N1CCOCC1 [MTR-0133, 5-(4-Chloro-5-methylsulfanyl-6-morpholin-4-yl-pyrimidin-2-yl)-pyridin-2-ylamine]
8 | 14.20% | CSc1c(Cl)nc(-c2ccc(NC(=O)Nc3ccc(F)cc3)cc2)nc1N1CCOCC1 [MTR-0135, 1-[4-(4-Chloro-5-methylsulfanyl-6-morpholin-4-yl-pyrimidin-2-yl)-phenyl]-3-(4-fluoro-phenyl)-urea]
9 | 8.20% | CSc1cnc(-c2ccc(NC(=O)Nc3ccc(F)cc3)cc2)nc1N1CCOCC1 [MTR-0178, 1-(4-Fluoro-phenyl)-3-[4-(5-methylsulfanyl-4-morpholin-4-yl-pyrimidin-2-yl)-phenyl]-urea]
